Test systems include SR leukemia; UO-31 renal; IGROV1 ovarian; 786-0 renal; SK-MEL-28 melanoma; MALME-3M melanoma; ACHN renal; MCF7 breast; NCI-H460 lung; SF-295 CNS; MOLT-4 leukemia.
Assay in all cases: NCI-60 cell line screen, 48 h

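Each compound was tested at five concentrations against cells in 96-well plates for 48 hours. TGI is the concentration that stops growth completely.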

For `CCOP(=O)(OCC)/C(C#N)=C/c1c(C)[nH]c2ccccc12`, the TGI was greater than 100 µM with SR leukemia; 47.8 µM with UO-31 renal; greater than 100 µM with IGROV1 ovarian; greater than 100 µM in the test with 786-0 renal; greater than 100 µM in the test with SK-MEL-28 melanoma; greater than 100 µM in the test on MALME-3M melanoma. For the same compound, the TGI with ACHN renal, in the test on MCF7 breast, in the test with NCI-H460 lung, with SF-295 CNS and in the test with MOLT-4 leukemia was greater than 100 µM throughout.

For the compound `CCOC1SC(SC)=NN1C(=O)C(OC(C)=O)C(OC(C)=O)C(OC(C)=O)C(OC(C)=O)C(=O)N1N=C(SC)SC1OCC` (configuration not stated), the TGI in the test on SR leukemia, with UO-31 renal, with IGROV1 ovarian, in the test with 786-0 renal, in the test on SK-MEL-28 melanoma and in the test on MALME-3M melanoma was greater than 100 µM throughout. Moreover, the TGI in the test with ACHN renal, in the test with MCF7 breast, with NCI-H460 lung, in the test on SF-295 CNS and with MOLT-4 leukemia was greater than 100 µM each time.

The values above are taken from PubChem BioAssay (NCI).
